Read-outs that look alike come from different tables or passages of the source.
Biological target: T1, Egghead β1-4-mannosyltransferase (Drosophila melanogaster, UniProt O01346)
T1 construct: a secreted version of egghead was prepared as described for the full length construct; made in house; host or cells: baculovirus-infected Sf9 and High Five insect cells (microsomal fractions)
T1 sequence (O01346 1-457): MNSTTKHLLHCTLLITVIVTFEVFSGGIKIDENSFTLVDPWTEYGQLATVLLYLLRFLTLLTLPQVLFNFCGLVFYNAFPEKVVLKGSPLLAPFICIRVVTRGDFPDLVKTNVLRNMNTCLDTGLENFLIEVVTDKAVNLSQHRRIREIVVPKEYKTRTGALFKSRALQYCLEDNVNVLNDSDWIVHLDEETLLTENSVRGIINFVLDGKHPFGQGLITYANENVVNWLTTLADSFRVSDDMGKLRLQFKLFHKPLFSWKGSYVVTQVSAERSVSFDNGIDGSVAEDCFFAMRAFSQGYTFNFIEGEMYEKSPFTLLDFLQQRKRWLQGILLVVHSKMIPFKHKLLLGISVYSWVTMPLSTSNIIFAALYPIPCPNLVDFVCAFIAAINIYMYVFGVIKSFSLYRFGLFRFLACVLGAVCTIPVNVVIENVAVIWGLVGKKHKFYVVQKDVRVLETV
Assay: Egghead mannosyltransferase enzyme assay with soluble acceptor and donor substrates (microsomal fractions)
Type: biochemical
Settings: for Substrate specificities of Egghead β1-4-mannosyltransferase, activity at 1 mM: acceptor substrate 1 mM; for Substrate specificities of Egghead β1-4-mannosyltransferase, activity at 1 mM / Substrate specificities of Egghead β1-4-mannosyltransferase, activity at 5 mM: microsomes of pVL-Egghead infected High Five cells, GalNAc-T4 background subtracted; for Substrate specificities of Egghead β1-4-mannosyltransferase, activity at 5 mM: acceptor substrate 5 mM; for acceptor substrate activity (in words): microsomal fractions of High Five cells; for effect of divalent cation salt on enzyme activity: addition of 5 to 10 mM; for donor substrate utilisation by egghead (in words): donor sugar nucleotides tested under similar conditions
Description: Initial assays of activity included a screen with high concentrations of monosaccharide substrates and different donor substrates.
An expression construct of the full coding region of egghead was prepared by RT-PCR using D. melanogaster mRNA and the sense primer Egh001 (5′-[…]-3′, SEQ ID NO: 4) with a BglII restriction site and the anti-sense primer Egh002 (5′-[…]-3′, SEQ ID NO: 5) with a XbaI restriction site. The resulting 1.1 Kb fragment was cloned into the BglII/XbaI sites of pVL1393 (PharMingen) and pVL1393-MYC. Furthermore an expression construct for a secreted version of egghead was prepared as described for the full length construct but using sense primer Egh003 (5′[…]-3′, SEQ ID NO: 6) with a BglII restriction site and the anti-sense primer Egh002. The resulting 1 Kb fragment was cloned into pAcGP67 Baculo-virus expression vector. Expression constructs pVL-egghead-full and pVL-egghead-Myc-full and pAcGP67-egghead-sol were co-transfected with Baculo-Gold™ DNA (Pharmingen) in Sf9 cells as described (12). Control constructs included pVL-GalNAc-T4-full (8) and pVL-brainiac-full (7). Standard enzyme assays were performed in 50 μl reaction mixtures containing 25 mM HEPES-KOH (pH 7.4), 10 mM MgCl2, 0.1% n-octylgalactoside (Sigma), and 100 μM GDP-[^14C]-Man (2,000 cpm/nmol) (Amersham), and varying concentration of acceptor substrates (purchased from Fluka, Merck, Sigma and Toronto Research Chemicals Inc; see Table I for structures). Assays with brainiac were carried out in the same reaction mixture except for addition of UDP-[^14C]GlcNAc (3,000 cpm/nmol) (Amersham) and MnCl2. Enzyme sources were microsomal fractions of baculo-virus infected Sf9 and High Five™ cells prepared essentially as described by Weis et al. (1998). Briefly, cells were lysed in lysis buffer (25 mM Tris-HCl pH 7.4, 250 mM Sucrose), after incubation 30 min on ice cells were homogenized and lysate centrifuged at 1000×G. Glycerol were added to 20% and membrane pellets were obtained by 100.000×g. Pellets were used at 10 mg/ml (Protein concentration determined by BCA, Pierce). Reaction products of soluble acceptors were quantified by chromatography on Dowex AG1-X8 (Sigma). Assays with glycosphingolipids included 5 mM 2-Acetamido-2-deoxy-D-Glucono-1,5-lactone (inhibitor of hexosaminidase activity), and products were purified on octadecyl-silica cartridges (Supelco) and analyzed by high performance thin-layer chromatography followed by autoradiography.

[1] = acceptor substrate, GDP-Man donor, read-out: apparent Km of acceptor substrate

Molecule: CC(=O)N[C@H]1[C@H](Oc2ccc([N+](=O)[O-])cc2)O[C@H](CO)[C@H](O)[C@@H]1O [GalNAcβ1-pNph]
- Substrate specificities of Egghead β1-4-mannosyltransferase, activity at 1 mM (GDP-Man donor): 0.0 nmol/h/mg

Molecule: CCCCCCCCO[C@@H]1O[C@H](CO)[C@H](O)[C@H](O)[C@H]1O [Galβ1-n-Octyl]
- Substrate specificities of Egghead β1-4-mannosyltransferase, activity at 1 mM (GDP-Man donor): 0.0 nmol/h/mg
- Substrate specificities of Egghead β1-4-mannosyltransferase, activity at 5 mM (GDP-Man donor): 0.0 nmol/h/mg

Molecule: CCCCCCCCO[C@@H]1O[C@H](CO)[C@@H](O[C@@H]2O[C@H](CO)[C@@H](O)[C@H](O)[C@@H]2O)[C@H](O)[C@H]1O [Manβ1-4Glcβ1-n-Octyl]
- acceptor substrate activity (in words) (GDP-Man donor): no activity
- Substrate specificities of Egghead β1-4-mannosyltransferase, activity at 1 mM (GDP-Man donor): 0.0 nmol/h/mg
- Substrate specificities of Egghead β1-4-mannosyltransferase, activity at 5 mM (GDP-Man donor): 0.0 nmol/h/mg

Molecule: CCCCCCCCO[C@@H]1O[C@H](CO)[C@H](O)[C@H](O)[C@H]1O [n-octylgalactoside]
- effect of n-octylgalactoside on egghead activity (3.4 mM (0.1%), microsomal membranes): activated

Molecule: Cc1cc(=O)oc2cc(O[C@@H]3O[C@H](CO)[C@@H](O)[C@H](O)[C@H]3O)ccc12 [Glcα1-MeUmb]
- Substrate specificities of Egghead β1-4-mannosyltransferase, activity at 1 mM (GDP-Man donor): 1.2 nmol/h/mg
- Substrate specificities of Egghead β1-4-mannosyltransferase, activity at 5 mM (GDP-Man donor): 12.9 nmol/h/mg

Molecule: CC(=O)N[C@H]1C(O)O[C@H](CO)[C@@H](O[C@@H]2O[C@H](CO)[C@@H](O)[C@H](O)[C@@H]2O)[C@@H]1O (some centres unmarked) [Manβ1-4GlcNAc]
- acceptor substrate activity (in words) (GDP-Man donor): no activity
- Substrate specificities of Egghead β1-4-mannosyltransferase, activity at 1 mM (GDP-Man donor): 0.0 nmol/h/mg
- Substrate specificities of Egghead β1-4-mannosyltransferase, activity at 5 mM (GDP-Man donor): 0.0 nmol/h/mg

Molecule: OC[C@H]1O[C@H](OCc2ccccc2)[C@@H](O)[C@@H](O)[C@@H]1O [Manα-1-Bzl]
- Substrate specificities of Egghead β1-4-mannosyltransferase, activity at 1 mM (GDP-Man donor): 0.0 nmol/h/mg

Molecule: Cc1cc(=O)oc2cc(O[C@@H]3O[C@H](CO)[C@@H](O)[C@H](O)[C@@H]3O)ccc12 [Manβ1-MeUmb]
- Substrate specificities of Egghead β1-4-mannosyltransferase, activity at 1 mM (GDP-Man donor): 97 nmol/h/mg
- Substrate specificities of Egghead β1-4-mannosyltransferase, activity at 5 mM (GDP-Man donor): 171.4 nmol/h/mg

Molecule: O=[N+]([O-])c1ccc(O[C@@H]2O[C@H](CO)[C@H](O)[C@H](O)[C@H]2O)cc1 [Galβ1-pNph]
- Substrate specificities of Egghead β1-4-mannosyltransferase, activity at 1 mM (GDP-Man donor): 0.0 nmol/h/mg

Molecule: [Ca+2].[Cl-].[Cl-] [CaCl2]
- effect of divalent cation salt on enzyme activity: had no effect

Molecule: O=C[C@H](O)[C@@H](O)[C@H](O)[C@H](O)CO [D-Glucose]
- acceptor substrate activity (in words) (GDP-Man donor): marked increase in GDP-Man transferase activity

Molecule: Cc1cc(=O)oc2cc(O[C@@H]3O[C@H](CO)[C@H](O)[C@H](O)[C@H]3O)ccc12 [Galβ1-MeUmb]
- Substrate specificities of Egghead β1-4-mannosyltransferase, activity at 1 mM (GDP-Man donor): 0.0 nmol/h/mg

Molecule: C[C@H](CCC(=O)NCCC[N+](C)(C)CCCS(=O)(=O)[O-])[C@H]1CC[C@H]2[C@@H]3[C@H](O)C[C@@H]4C[C@H](O)CC[C@]4(C)[C@H]3C[C@H](O)[C@]12C [CHAPS]
- effect of CHAPS on egghead activity (concentration not given, to a lesser extent than n-octylgalactoside): activated

Molecule: Cc1cc(=O)oc2cc(O[C@@H]3OC[C@@H](O)[C@H](O)[C@H]3O)ccc12 [Xylβ1-MeUmb]
- Substrate specificities of Egghead β1-4-mannosyltransferase, activity at 1 mM (GDP-Man donor): 0.0 nmol/h/mg

Molecule: Nc1nc2c(ncn2[C@@H]2O[C@H](COP(=O)(O)OP(=O)(O)O[C@H]3O[C@H](CO)[C@@H](O)[C@H](O)[C@@H]3O)[C@@H](O)[C@H]2O)c(=O)[nH]1 [GDP-Man, GDP-mannose]
- Km (donor substrate, with n-octyl-β-Glc acceptor substrate, read-out: apparent Km for GDP-Man): 58 ± 6.2 µM
- donor substrate utilisation by egghead (in words): strict donor substrate specificity

Molecule: CC(=O)N[C@H]1[C@@H](OP(=O)(O)OP(=O)(O)OC[C@H]2O[C@@H](n3ccc(=O)[nH]c3=O)[C@H](O)[C@@H]2O)O[C@H](CO)[C@@H](O)[C@@H]1O [UDP-GlcNAc]
- donor substrate utilisation by egghead (in words): did not utilize

Molecule: O=[N+]([O-])c1ccc(O[C@@H]2O[C@H](CO)[C@@H](O)[C@H](O)[C@@H]2O)cc1 [Manβ1-pNph]
- Substrate specificities of Egghead β1-4-mannosyltransferase, activity at 1 mM (GDP-Man donor): 98.6 nmol/h/mg
- Substrate specificities of Egghead β1-4-mannosyltransferase, activity at 5 mM (GDP-Man donor): 182.9 nmol/h/mg
- Km [1]: 2300 ± 500 µM

Molecule: CCCCCCCCOC1O[C@H](CO)[C@@H](O)[C@H](O)[C@H]1O (stereo partly drawn) [Glcβ1-n-Octyl, n-octyl-β-glucoside]
- Km [1]: 670 ± 80 µM

Molecule: CC(=O)N[C@H]1[C@H](Oc2ccc3c(C)cc(=O)oc3c2)O[C@H](CO)[C@@H](O)[C@@H]1O [GlcNAcβ1-MeUmb]
- Substrate specificities of Egghead β1-4-mannosyltransferase, activity at 1 mM (GDP-Man donor): 0.2 nmol/h/mg
- Substrate specificities of Egghead β1-4-mannosyltransferase, activity at 5 mM (GDP-Man donor): 0.0 nmol/h/mg

Molecule: [Cl-].[Cl-].[Mg+2] [MgCl2]
- effect of divalent cation salt on enzyme activity: activated

Molecule: CCCCCCCCO[C@H]1O[C@H](CO)[C@@H](O)[C@H](O)[C@H]1O [Glcα1-n-Octyl]
- Substrate specificities of Egghead β1-4-mannosyltransferase, activity at 1 mM (GDP-Man donor): 3.6 nmol/h/mg
- Substrate specificities of Egghead β1-4-mannosyltransferase, activity at 5 mM (GDP-Man donor): 6.5 nmol/h/mg

Molecule: Triton X-100
- effect of detergent on egghead activity (detergent at 0.1%, microsomal membranes): inhibited

Molecule: [Cl][Mn][Cl] [MnCl2]
- effect of divalent cation salt on enzyme activity: activated

Molecule: C[C@@H]1O[C@H](Oc2ccc([N+](=O)[O-])cc2)[C@@H](O)[C@H](O)[C@@H]1O [Fucβ1-pNph]
- Substrate specificities of Egghead β1-4-mannosyltransferase, activity at 1 mM (GDP-Man donor): 0.0 nmol/h/mg
- Substrate specificities of Egghead β1-4-mannosyltransferase, activity at 5 mM (GDP-Man donor): 0.0 nmol/h/mg

Molecule: [2H]C([2H])([2H])C([2H])([2H])C([2H])([2H])C([2H])([2H])C([2H])([2H])C([2H])([2H])C([2H])([2H])C([2H])([2H])OC1([2H])O[C@]([2H])(C([2H])([2H])O)[C@@]([2H])(O)[C@]([2H])(O)[C@@]1([2H])O (stereo partly drawn) [Glcβ1-n-Octyl, n-octyl-β-glucoside]
- Substrate specificities of Egghead β1-4-mannosyltransferase, activity at 1 mM (GDP-Man donor): 442.8 nmol/h/mg
- Substrate specificities of Egghead β1-4-mannosyltransferase, activity at 5 mM (GDP-Man donor): 732.6 nmol/h/mg

Molecule: CC(=O)N[C@H]1[C@H](Oc2ccc([N+](=O)[O-])cc2)O[C@H](CO)[C@@H](O)[C@@H]1O [GlcNAcβ1-pNph]
- Substrate specificities of Egghead β1-4-mannosyltransferase, activity at 1 mM (GDP-Man donor): 0.0 nmol/h/mg

Molecule: O=[N+]([O-])c1ccc(O[C@@H]2O[C@H](CO)[C@@H](O)[C@H](O)[C@H]2O)cc1 [Glcβ1-pNph]
- Substrate specificities of Egghead β1-4-mannosyltransferase, activity at 1 mM (GDP-Man donor): 378.6 nmol/h/mg
- Substrate specificities of Egghead β1-4-mannosyltransferase, activity at 5 mM (GDP-Man donor): 561.4 nmol/h/mg
- Km [1]: 1100 ± 300 µM

Molecule: CC(=O)N[C@H]1[C@@H](OP(=O)(O)OP(=O)(O)OC[C@H]2O[C@@H](n3ccc(=O)[nH]c3=O)[C@H](O)[C@@H]2O)O[C@H](CO)[C@H](O)[C@@H]1O [UDP-GalNAc]
- donor substrate utilisation by egghead (in words): did not utilize

Molecule: Cc1cc(=O)oc2cc(O[C@@H]3O[C@H](CO)[C@@H](O)[C@H](O)[C@H]3O)ccc12 [Glcβ1-MeUmb]
- Substrate specificities of Egghead β1-4-mannosyltransferase, activity at 1 mM (GDP-Man donor): 330.0 nmol/h/mg
- Substrate specificities of Egghead β1-4-mannosyltransferase, activity at 5 mM (GDP-Man donor): 611.4 nmol/h/mg

B1: egghead: GDP-D-mannose: β-D-glucose-R 4-β-D-mannosyltransferase, SEQ ID NO. 1 (protein)
chain: T1 sequence (O01346 1-457)
modifications: Drosophila melanogaster
- pH optimum of egghead activity (microsomal membranes): 7-8 pH
